# Biological target: human SGLT2 (Homo sapiens (Human), UniProt P31639)
# Experiment: hSGLT2 inhibitory activity, sodium-dependent 14C-AMG glucose transport assay in CHO cells expressing hSGLT2
# Format: cell-based
# Conditions: 14C-AMG uptake, CHO cells expressing hSGLT2, 37° C. for 2 h
# Source text: Human SGLT2 (hSGLT2) gene was amplified by PCR from cDNA-Human Adult Normal Tissue Kidney (Invitrogen, Carlsbad, Calif.). The hSGLT2 sequence was cloned into pcDNA3.1(+) for mammalian expression and were stably transfected into Chinese hamster ovary (CHO) cells. SGLT2-expressing clones were selected based on resistance to G418 antibiotic (Geneticin®, Invitrogen, Carlsbad, Calif.) and activity in the ^14C-α-methyl-D-glucopyranoside (^14C-AMG) uptake assay.
# For sodium-dependent glucose transport assay, cells expressing hSGLT2 were seeded into a 96-well culture plate at a density of 5×10^4 cells/well in RPMI medium 1640 containing 10% fetal bovine serum. The cells were used 1 day after plating. They were incubated in pretreatment buffer (10 mM HEPES, 5 mM Tris, 140 mM choline chloride, 2 mM KCl, 1 mM CaCl2, and 1 mM MgCl2, pH 7.4) at 37° C. for 10 min. They were then incubated in uptake buffer (10 mM HEPES, 5 mM Tris, 140 mM NaCl, 2 mM KCl, 1 mM CaCl2, 1 mM MgCl2, and 1 mM ^14C-nonlabeled AMG pH 7.4) containing ^14C-labeled (8 uM) and inhibitor or dimethyl sulfoxide (DMSO) vehicle at 37° C. for 2 h. Cells were washed twice with washing buffer (pretreatment buffer containing 10 mM AMG at room temperature) and then the radioactivity was measured using a liquid scintillation counter.
# human SGLT2, sequence (P31639 whole entry): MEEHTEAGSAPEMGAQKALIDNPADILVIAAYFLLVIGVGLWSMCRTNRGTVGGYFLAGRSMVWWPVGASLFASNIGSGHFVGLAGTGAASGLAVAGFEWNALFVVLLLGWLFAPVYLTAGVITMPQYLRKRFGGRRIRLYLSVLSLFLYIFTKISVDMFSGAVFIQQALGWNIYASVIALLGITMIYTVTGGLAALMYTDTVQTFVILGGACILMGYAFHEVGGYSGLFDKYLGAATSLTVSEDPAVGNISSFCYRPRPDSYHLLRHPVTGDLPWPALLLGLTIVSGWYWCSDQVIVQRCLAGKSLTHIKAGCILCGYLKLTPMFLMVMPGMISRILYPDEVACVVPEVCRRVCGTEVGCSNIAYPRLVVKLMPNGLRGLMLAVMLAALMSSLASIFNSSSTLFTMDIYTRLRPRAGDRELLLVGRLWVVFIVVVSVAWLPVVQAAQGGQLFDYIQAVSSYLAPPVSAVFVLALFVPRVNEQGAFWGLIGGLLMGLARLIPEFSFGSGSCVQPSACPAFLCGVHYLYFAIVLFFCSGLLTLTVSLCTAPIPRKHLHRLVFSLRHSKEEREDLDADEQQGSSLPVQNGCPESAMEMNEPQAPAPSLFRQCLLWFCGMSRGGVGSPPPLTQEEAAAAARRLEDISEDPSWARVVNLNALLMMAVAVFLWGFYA
row,IC50 [nM],Compound
1,811,"CC(C)Cc1ccc(Cc2cc([C@@H]3O[C@H](CO)[C@@H](O)[C@H](O)[C@H]3O)ccc2Cl)nn1 [Example 77, (2S,3R,4R,5S,6R)-2-(4-Chloro-3-((6-isobutylpyridazin-3-yl)methyl)phenyl)-6-(hydroxymethyl)-tetrahydro-2H-pyran-3,4,5-triol]"
2,71.3,"CCSc1ccc(Cc2cc([C@@H]3O[C@H](CO)[C@@H](O)[C@H](O)[C@H]3O)ccc2Cl)nn1 [Example 80, (2S,3R,4R,5S,6R)-2-(4-Chloro-3-((6-(ethylthio)pyridazin-3-yl)methyl)phenyl)-6-(hydroxymethyl)-tetrahydro-2H-pyran-3,4,5-triol]"
3,1520,"CSc1nnc(Cc2cc([C@@H]3O[C@H](CO)[C@@H](O)[C@H](O)[C@H]3O)ccc2Cl)cc1C [Example 82, (2S,3R,4R,5S,6R)-2-(4-Chloro-3-((5-methyl-6-(methylthio)pyridazin-3-yl)methyl)phenyl)-6-(hydroxymethyl)tetrahydro-2H-pyran-3,4,5-triol]"
4,618,"Cc1cc(Cc2cc([C@@H]3O[C@H](CO)[C@@H](O)[C@H](O)[C@H]3O)ccc2Cl)n[nH]c1=O [Example 83, 6-(2-Chloro-5-((2S,3R,4R,5S,6R)-3,4,5-trihydroxy-6-(hydroxymethyl)-tetrahydro-2H-pyran-2-yl)benzyl)-4-methylpyridazin-3(2H)-one]"
5,700,"OC[C@H]1O[C@@H](c2ccc(Cl)c(Cc3ccc(N4CCOCC4)nn3)c2)[C@H](O)[C@@H](O)[C@@H]1O [Example 84, (2S,3R,4R,5S,6R)-2-(4-Chloro-3-((6-morpholinopyridazin-3-yl)methyl)phenyl)-6-(hydroxymethyl)-tetrahydro-2H-pyran-3,4,5-triol]"
6,532,"Cc1ccc2nc(Cc3cc([C@@H]4O[C@H](CO)[C@@H](O)[C@H](O)[C@H]4O)ccc3Cl)nnc2c1 [Example 87, (2S,3R,4R,5S,6R)-2-(4-Chloro-3-((7-methylbenzo[e][1,2,4]triazin-3-yl)methyl)phenyl)-6-(hydroxymethyl)tetrahydro-2H-pyran-3,4,5-triol]"
7,491,"OC[C@H]1O[C@@H](c2ccc(Cl)c(Cc3nnc4ccccc4n3)c2)[C@H](O)[C@@H](O)[C@@H]1O [Example 88, (2S,3R,4R,5S,6R)-2-(3-(Benzo[e][1,2,4]triazin-3-ylmethyl)-4-chlorophenyl)-6-(hydroxymethyl)tetrahydro-2H-pyran-3,4,5-triol]"
8,261,"OC[C@H]1O[C@@H](c2ccc(Cl)c(Cc3nccnn3)c2)[C@H](O)[C@@H](O)[C@@H]1O [Example 89, (2S,3R,4R,5S,6R)-2-(3-((1,2,4-triazin-3-yl)methyl)-4-chlorophenyl)-6-(hydroxymethyl)tetrahydro-2H-pyran-3,4,5-triol]"
9,402,"OC[C@H]1O[C@@H](c2ccc(Cl)c(Cc3nncc(-c4ccccc4)n3)c2)[C@H](O)[C@@H](O)[C@@H]1O [Example 90, (2S,3R,4R,5S,6R)-2-(4-Chloro-3-((5-phenyl-1,2,4-triazin-3-yl)methyl)phenyl)-6-(hydroxymethyl)tetrahydro-2H-pyran-3,4,5-triol]"
10,24.9,"COc1cnc(Cc2cc([C@@H]3O[C@H](CO)[C@@H](O)[C@H](O)[C@H]3O)ccc2Cl)nn1 [Example 91, (2S,3R,4R,5S,6R)-2-(4-Chloro-3-((6-methoxy-1,2,4-triazin-3-yl)methyl)phenyl)-6-(hydroxymethyl)tetrahydro-2H-pyran-3,4,5-triol]"
11,88.9,"OC[C@H]1O[C@@H](c2cc(Cc3nnc(-c4ccco4)s3)cc3ccccc23)[C@H](O)[C@@H](O)[C@@H]1O [Example 92, (2S,3R,4R,5S,6R)-2-(3-((5-(Furan-2-yl)-1,3,4-thiadiazol-2-yl)methyl)naphthalene-1-yl)-6-(hydroxymethyl)-tetrahydro-2H-pyran-3,4,5-triol]"
12,10.7,"COc1c(Cc2nnc(-c3ccco3)s2)cc([C@@H]2O[C@H](CO)[C@@H](O)[C@H](O)[C@H]2O)c2ccccc12 [Example 93, (2S,3R,4R,5S,6R)-2-(3-((5-(Furan-2-yl)-1,3,4-thiadiazol-2-yl)methyl)-4-methoxynaphthalen-1-yl)-6-(hydroxymethyl)-tetrahydro-2H-pyran-3,4,5-triol]"
13,24.8,"OC[C@H]1O[C@@H](c2cc(Cc3nnc(-c4ccco4)s3)c(O)c3ccccc23)[C@H](O)[C@@H](O)[C@@H]1O [Example 94, (2S,3R,4R,5S,6R)-2-(3-((5-(Furan-2-yl)-1,3,4-thiadiazol-2-yl)methyl)-4-hydroxynaphthalen-1-yl)-6-(hydroxymethyl)-tetrahydro-2H-pyran-3,4,5-triol]"
14,323,"OC[C@H]1O[C@@H](c2cc(Cc3nnc(-c4ccco4)s3)c3ccccc3c2)[C@H](O)[C@@H](O)[C@@H]1O [Example 95, (2S,3R,4R,5S,6R)-2-(4-((5-(Furan-2-yl)-1,3,4-thiadiazol-2-yl)methyl)naphthalen-2-yl)-6-(hydroxymethyl)-tetrahydro-2H-pyran-3,4,5-triol]"
15,17.6,"OC[C@H]1O[C@@H](c2cc(Cc3nnc(-c4ccco4)s3)c(Cl)cc2Cl)[C@H](O)[C@@H](O)[C@@H]1O [Example 96, (2S,3R,4R,5S,6R)-2-(2,4-Dichloro-5-((5-(furan-2-yl)-1,3,4-thiadiazol-2-yl)methyl)phenyl)-6-(hydroxymethyl)-tetrahydro-2H-pyran-3,4,5-triol]"
16,5.55,"COc1cc(Cl)c(Cc2nnc(-c3ccco3)s2)cc1[C@@H]1O[C@H](CO)[C@@H](O)[C@H](O)[C@H]1O [Example 97, (2S,3R,4R,5S,6R)-2-(4-Chloro-5-((5-(furan-2-yl)-1,3,4-thiadiazol-2-yl)methyl)-2-methoxyphenyl)-6-(hydroxymethyl)-tetrahydro-2H-pyran-3,4,5-triol]"
